Results reported in PubChem BioAssay (NCI).
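Step 1: Grow cells in 96-well plates. Step 2: Expose to compound for 48 hours at 5 concentrations. Step 3: Interpolate endpoints linearly; if unreached, use highest concentration. GI50: concentration for 50% inhibition of growth. Definition used: TGI = concentration required for complete inhibition of growth.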

What was measured:
Assay in all cases: NCI tumour cell line growth inhibition, 48 h
A498 renal = system: A498 renal
A549 NSCLC = system: A549 NSCLC
CAKI-1 renal = system: CAKI-1 renal
CCRF-CEM leukemia = system: CCRF-CEM leukemia
COLO 205 colon = system: COLO 205 colon
DLD-1 colon = system: DLD-1 colon
DMS 114 small cell lung = system: DMS 114 small cell lung
DMS 273 small cell lung = system: DMS 273 small cell lung
EKVX NSCLC = system: EKVX NSCLC
HCC-2998 colon = system: HCC-2998 colon
HCT-116 colon = system: HCT-116 colon
HCT-15 colon = system: HCT-15 colon
HL-60(TB) leukemia = system: HL-60(TB) leukemia
HOP-18 NSCLC = system: HOP-18 NSCLC
HOP-62 NSCLC = system: HOP-62 NSCLC
HOP-92 NSCLC = system: HOP-92 NSCLC
HT29 colon = system: HT29 colon
IGROV1 ovarian = system: IGROV1 ovarian
K-562 leukemia = system: K-562 leukemia
KM12 colon = system: KM12 colon
KM20L2 colon = system: KM20L2 colon
LOX IMVI melanoma = system: LOX IMVI melanoma
M19-MEL melanoma = system: M19-MEL melanoma
MALME-3M melanoma = system: MALME-3M melanoma
MCF7 breast = system: MCF7 breast
MOLT-4 leukemia = system: MOLT-4 leukemia
NCI-H226 lung = system: NCI-H226 lung
NCI-H23 lung = system: NCI-H23 lung
NCI-H460 lung = system: NCI-H460 lung
NCI-H522 lung = system: NCI-H522 lung
NCI/ADR-RES ovarian = system: NCI/ADR-RES ovarian
OVCAR-3 ovarian = system: OVCAR-3 ovarian
OVCAR-4 ovarian = system: OVCAR-4 ovarian
OVCAR-5 ovarian = system: OVCAR-5 ovarian
OVCAR-8 ovarian = system: OVCAR-8 ovarian
P388 leukemia = system: P388 leukemia
P388/ADR leukemia = system: P388/ADR leukemia
RPMI-8226 leukemia = system: RPMI-8226 leukemia
RXF 393 renal = system: RXF 393 renal
SF-268 CNS = system: SF-268 CNS
SF-295 CNS = system: SF-295 CNS
SF-539 CNS = system: SF-539 CNS
SK-MEL-2 melanoma = system: SK-MEL-2 melanoma
SK-MEL-28 melanoma = system: SK-MEL-28 melanoma
SK-MEL-5 melanoma = system: SK-MEL-5 melanoma
SK-OV-3 ovarian = system: SK-OV-3 ovarian
SN12C renal = system: SN12C renal
SN12K1 renal = system: SN12K1 renal
SNB-19 CNS = system: SNB-19 CNS
SNB-75 CNS = system: SNB-75 CNS
SNB-78 CNS = system: SNB-78 CNS
SW-620 colon = system: SW-620 colon
U251 CNS = system: U251 CNS
UACC-257 melanoma = system: UACC-257 melanoma
UACC-62 melanoma = system: UACC-62 melanoma
UO-31 renal = system: UO-31 renal
786-0 renal = system: 786-0 renal
ACHN renal = system: ACHN renal
BT-549 breast = system: BT-549 breast
DU-145 prostate = system: DU-145 prostate
HS 578T breast = system: HS 578T breast
LXFL 529 NSCLC = system: LXFL 529 NSCLC
M14 melanoma = system: M14 melanoma
MDA-MB-231 breast = system: MDA-MB-231 breast
MDA-MB-435 = system: MDA-MB-435
MDA-N = system: MDA-N
PC-3 prostate = system: PC-3 prostate
RXF-631 renal = system: RXF-631 renal
SR leukemia = system: SR leukemia
T-47D breast = system: T-47D breast
TK-10 renal = system: TK-10 renal
XF 498 CNS = system: XF 498 CNS

## Cc1ncc(CO)c(C=NCCCCCCN=Cc2c(CO)cnc(C)c2[O-])c1[O-].[Cu+2]
A498 renal
  TGI: > 100 µM
A549 NSCLC
  TGI: > 100 µM
CAKI-1 renal
  TGI: > 100 µM
CCRF-CEM leukemia
  TGI: > 31.6 µM
COLO 205 colon
  TGI: > 100 µM
DLD-1 colon
  GI50: > 82.9 µM
  TGI: > 100 µM
DMS 114 small cell lung
  GI50: > 47.7 µM
  TGI: > 77.6 µM
DMS 273 small cell lung
  GI50: > 66.9 µM
  TGI: > 100 µM
EKVX NSCLC
  TGI: > 100 µM
HCC-2998 colon
  TGI: > 100 µM
HCT-116 colon
  TGI: > 100 µM
HCT-15 colon
  TGI: > 100 µM
HL-60(TB) leukemia
  TGI: > 100 µM
HOP-18 NSCLC
  GI50: > 100 µM
  TGI: > 100 µM
HOP-62 NSCLC
  TGI: > 100 µM
HOP-92 NSCLC
  TGI: > 87.9 µM
HT29 colon
  TGI: > 100 µM
IGROV1 ovarian
  TGI: > 100 µM
K-562 leukemia
  TGI: > 100 µM
KM12 colon
  TGI: > 100 µM
KM20L2 colon
  GI50: > 83.9 µM
  TGI: > 100 µM
LOX IMVI melanoma
  TGI: > 94.3 µM
M19-MEL melanoma
  GI50: 28.6 µM
  TGI: > 31.6 µM
MALME-3M melanoma
  TGI: > 100 µM
MCF7 breast
  TGI: > 100 µM
MOLT-4 leukemia
  TGI: > 100 µM
NCI-H226 lung
  TGI: > 100 µM
NCI-H23 lung
  TGI: > 100 µM
NCI-H460 lung
  TGI: > 100 µM
NCI-H522 lung
  TGI: > 100 µM
NCI/ADR-RES ovarian
  TGI: > 100 µM
OVCAR-3 ovarian
  TGI: > 100 µM
OVCAR-4 ovarian
  TGI: > 100 µM
OVCAR-5 ovarian
  TGI: > 100 µM
OVCAR-8 ovarian
  TGI: > 100 µM
P388 leukemia
  GI50: 18.9 µM
  TGI: 94.2 µM
P388/ADR leukemia
  GI50: 25.7 µM
  TGI: > 100 µM
RPMI-8226 leukemia
  TGI: > 100 µM
RXF 393 renal
  TGI: > 100 µM
SF-268 CNS
  TGI: > 100 µM
SF-295 CNS
  TGI: > 100 µM
SF-539 CNS
  TGI: > 100 µM
SK-MEL-2 melanoma
  TGI: > 100 µM
SK-MEL-28 melanoma
  TGI: > 100 µM
SK-MEL-5 melanoma
  TGI: > 79.1 µM
SK-OV-3 ovarian
  TGI: > 100 µM
SN12C renal
  TGI: > 100 µM
SN12K1 renal
  GI50: > 100 µM
  TGI: > 100 µM
SNB-19 CNS
  TGI: > 100 µM
SNB-75 CNS
  TGI: > 100 µM
SNB-78 CNS
  GI50: 41.3 µM
  TGI: > 100 µM
SW-620 colon
  TGI: > 100 µM
U251 CNS
  TGI: > 70.9 µM
UACC-257 melanoma
  TGI: > 100 µM
UACC-62 melanoma
  TGI: > 100 µM
UO-31 renal
  TGI: > 100 µM

## Cc1ccccc1C1=C/C(=C(\SS/C(C(=O)c2ccc(OCC(=O)O)c(Cl)c2Cl)=C2\C=C(c3ccccc3C)SS2)C(=O)c2ccc(OCC(=O)O)c(Cl)c2Cl)SS1
786-0 renal
  TGI: > 70 µM
A498 renal
  TGI: 92.6 µM
A549 NSCLC
  TGI: > 94.2 µM
ACHN renal
  TGI: 65.4 µM
BT-549 breast
  TGI: > 74.1 µM
CAKI-1 renal
  TGI: 72.9 µM
CCRF-CEM leukemia
  TGI: 32.2 µM
COLO 205 colon
  TGI: 47.5 µM
DLD-1 colon
  TGI: > 67.2 µM
DMS 114 small cell lung
  TGI: 24.7 µM
DMS 273 small cell lung
  TGI: 36.7 µM
DU-145 prostate
  TGI: > 100 µM
EKVX NSCLC
  TGI: > 96.5 µM
HCC-2998 colon
  TGI: > 100 µM
HCT-116 colon
  TGI: 56.2 µM
HCT-15 colon
  TGI: 59.4 µM
HL-60(TB) leukemia
  TGI: 7.65 µM
HOP-18 NSCLC
  TGI: 23.3 µM
HOP-62 NSCLC
  TGI: > 100 µM
HOP-92 NSCLC
  TGI: 13.8 µM
HS 578T breast
  TGI: 51.9 µM
HT29 colon
  TGI: 83.7 µM
IGROV1 ovarian
  TGI: 38.5 µM
K-562 leukemia
  TGI: 41.6 µM
KM12 colon
  TGI: 51 µM
KM20L2 colon
  TGI: > 100 µM
LOX IMVI melanoma
  TGI: 21.1 µM
LXFL 529 NSCLC
  TGI: 16.5 µM
M14 melanoma
  TGI: 49.2 µM
M19-MEL melanoma
  TGI: > 56.4 µM
MALME-3M melanoma
  TGI: > 87.6 µM
MCF7 breast
  TGI: > 90.7 µM
MDA-MB-231 breast
  TGI: 47.5 µM
MDA-MB-435
  TGI: > 100 µM
MDA-N
  TGI: > 100 µM
MOLT-4 leukemia
  TGI: 47.6 µM
NCI-H226 lung
  TGI: 42.1 µM
NCI-H23 lung
  TGI: 55.7 µM
NCI-H460 lung
  TGI: 60.2 µM
NCI-H522 lung
  TGI: 16.8 µM
NCI/ADR-RES ovarian
  TGI: > 100 µM
OVCAR-3 ovarian
  TGI: 50.6 µM
OVCAR-4 ovarian
  TGI: 64.3 µM
OVCAR-5 ovarian
  TGI: > 100 µM
OVCAR-8 ovarian
  TGI: 77.1 µM
PC-3 prostate
  TGI: 27.4 µM
RPMI-8226 leukemia
  TGI: 51.2 µM
RXF 393 renal
  TGI: 55.2 µM
RXF-631 renal
  TGI: > 100 µM
SF-268 CNS
  TGI: 45.9 µM
SF-295 CNS
  TGI: 87 µM
SF-539 CNS
  TGI: 44.9 µM
SK-MEL-2 melanoma
  TGI: 42.3 µM
SK-MEL-28 melanoma
  TGI: 69 µM
SK-MEL-5 melanoma
  TGI: 58.6 µM
SK-OV-3 ovarian
  TGI: > 100 µM
SN12C renal
  TGI: 50.6 µM
SNB-19 CNS
  TGI: > 84.5 µM
SNB-75 CNS
  TGI: 84 µM
SNB-78 CNS
  TGI: 51.4 µM
SR leukemia
  TGI: 57.3 µM
SW-620 colon
  TGI: 67.7 µM
T-47D breast
  TGI: 49 µM
TK-10 renal
  TGI: > 85.1 µM
U251 CNS
  TGI: 35.9 µM
UACC-257 melanoma
  TGI: 71.1 µM
UACC-62 melanoma
  TGI: 43.5 µM
UO-31 renal
  TGI: 51.1 µM
XF 498 CNS
  TGI: 42.6 µM
